Test results published in PMC6874179, “Development of Macrocycle Kinase Inhibitors for ALK2 Using Fibrodysplasia Ossificans Progressiva‐Derived Endothelial Cells” (JBMR Plus, 2019).

Assays:
ALK1 = molecular target: T1, ALK1 (Homo sapiens, UniProt P37023); assay: DiscoverX Kd determination; type: binding
T1 construct: T7 phage fusion (or DNA tag for qPCR if made in HEK-293); purchased DiscoverX; host or cells: E. coli (T7 phage) or HEK-293
Method: (§1) DiscoverX Kd determination: For most assays, kinase-tagged T7 phage strains were prepared in an E. coli host derived from the BL21 strain. E. coli were grown to log-phase and infected with T7 phage and incubated with shaking at 32°C until lysis. The lysates were centrifuged and filtered to remove cell debris. The remaining kinases were produced in HEK-293 cells and subsequently tagged with DNA for qPCR detection. […] The liganded beads were blocked with excess biotin and washed with blocking buffer (SeaBlock (Pierce), 1% BSA, 0.05% Tween 20, 1 mM DTT) to remove unbound ligand and to reduce non-specific binding. […] Kds were determined using an 11-point 3-fold compound dilution series with three DMSO control points. […] The compounds were then diluted directly into the assays such that the final concentration of DMSO was 0.9%. All reactions performed in polypropylene 384-well plate. Each was a final volume of 0.02 ml. […] The kinase concentration in the eluates was measured by qPCR. An 11-point 3-fold serial dilution of each test compound was prepared in 100% DMSO at 100x final test concentration and subsequently diluted to 1x in the assay (final DMSO concentration = 1%). Most Kds were determined using a compound top concentration = 30.000 nM. […] Binding constants (Kds) were calculated with a standard dose-response curve using the Hill equation: Response = Background + Signal – Background 1 + (KdHill Slope / DoseHill Slope). The Hill Slope was set to -1. Curves were fitted using a non-linear least square fit with the Levenberg-Marquardt algorithm.

ALK2 = molecular target: T2, ALK2 (Homo sapiens, UniProt Q04771); assay: DiscoverX Kd determination; type: binding
T2 construct: T7 phage fusion (or DNA tag for qPCR if made in HEK-293); purchased DiscoverX; host or cells: E. coli (T7 phage) or HEK-293
Method: as §1

ALK3 = molecular target: T3, ALK3 (Homo sapiens, UniProt P36894); assay: DiscoverX Kd determination; type: binding
T3 construct: T7 phage fusion (or DNA tag for qPCR if made in HEK-293); purchased DiscoverX; host or cells: E. coli (T7 phage) or HEK-293
Method: as §1

ALK4 = molecular target: T4, ALK4 (Homo sapiens, UniProt P36896); assay: DiscoverX Kd determination; type: binding
T4 construct: T7 phage fusion (or DNA tag for qPCR if made in HEK-293); purchased DiscoverX; host or cells: E. coli (T7 phage) or HEK-293
Method: as §1

ALK5 = molecular target: T5, ALK5 (Homo sapiens, UniProt P36897); assay: DiscoverX Kd determination; type: binding
T5 construct: T7 phage fusion (or DNA tag for qPCR if made in HEK-293); purchased DiscoverX; host or cells: E. coli (T7 phage) or HEK-293
Method: as §1

RET = molecular target: T6, RET (Homo sapiens, UniProt P07949); assay: Proqinase Kinase profiling; type: biochemical; conditions: read-out: % inhibition at 100nM
T6 construct: purchased DiscoverX

PDGFRA_D842V = molecular target: T7, PDGFRA_D842V (Homo sapiens, UniProt P16234, D842V); assay: Proqinase Kinase profiling; type: biochemical; conditions: read-out: % inhibition at 100nM
T7 construct: purchased DiscoverX

GRK4 = molecular target: T8, GRK4 (Homo sapiens, UniProt P32298); assay: Proqinase Kinase profiling; type: biochemical; conditions: read-out: % inhibition at 100nM
T8 construct: purchased DiscoverX

PRKCA = molecular target: T9, PRKCA (Homo sapiens, UniProt P17252); assay: Proqinase Kinase profiling; type: biochemical; conditions: read-out: % inhibition at 100nM
T9 construct: purchased DiscoverX

MAP2K2 = molecular target: T10, MAP2K2 (Homo sapiens, UniProt P36507); assay: Proqinase Kinase profiling; type: biochemical; conditions: read-out: % inhibition at 100nM
T10 construct: purchased DiscoverX

DDR2 = molecular target: T11, DDR2 (Homo sapiens, UniProt Q16832); assay: Proqinase Kinase profiling; type: biochemical; conditions: read-out: % inhibition at 100nM
T11 construct: purchased DiscoverX

NEK3 = molecular target: T12, NEK3 (Homo sapiens, UniProt P51956); assay: Proqinase Kinase profiling; type: biochemical; conditions: read-out: % inhibition at 100nM
T12 construct: purchased DiscoverX

STK3 = molecular target: T13, STK3 (Homo sapiens, UniProt Q13188); assay: Proqinase Kinase profiling; type: biochemical; conditions: read-out: % inhibition at 100nM
T13 construct: purchased DiscoverX

MAP4K4 = molecular target: T14, MAP4K4 (Homo sapiens, UniProt O95819); assay: Proqinase Kinase profiling; type: biochemical; conditions: read-out: % inhibition at 100nM
T14 construct: purchased DiscoverX

RPS6KB2 = molecular target: T15, RPS6KB2 (Homo sapiens, UniProt Q9UBS0); assay: Proqinase Kinase profiling; type: biochemical; conditions: read-out: % inhibition at 100nM
T15 construct: purchased DiscoverX

FLT3_D835Y = molecular target: T16, FLT3_D835Y (Homo sapiens, UniProt P36888, D835Y); assay: Proqinase Kinase profiling; type: biochemical; conditions: read-out: % inhibition at 100nM
T16 construct: purchased DiscoverX

CLK4 = molecular target: T17, CLK4 (Homo sapiens, UniProt Q9HAZ1); assay: Proqinase Kinase profiling; type: biochemical; conditions: read-out: % inhibition at 100nM
T17 construct: purchased DiscoverX

MAPK13 = molecular target: T18, MAPK13 (Homo sapiens, UniProt O15264); assay: Proqinase Kinase profiling; type: biochemical; conditions: read-out: % inhibition at 100nM
T18 construct: purchased DiscoverX

CDK6_cyclinD1 = molecular target: T19, CDK6_cyclinD1 (Homo sapiens, UniProt Q00534); assay: Proqinase Kinase profiling; type: biochemical; conditions: read-out: % inhibition at 100nM
T19 construct: purchased DiscoverX

SGK2 = molecular target: T20, SGK2 (Homo sapiens, UniProt Q9HBY8); assay: Proqinase Kinase profiling; type: biochemical; conditions: read-out: % inhibition at 100nM
T20 construct: purchased DiscoverX

MARK3 = molecular target: T21, MARK3 (Homo sapiens, UniProt P27448); assay: Proqinase Kinase profiling; type: biochemical; conditions: read-out: % inhibition at 100nM
T21 construct: purchased DiscoverX

CDK16_cyclinY = molecular target: T22, CDK16_cyclinY (Homo sapiens, UniProt Q00536); assay: Proqinase Kinase profiling; type: biochemical; conditions: read-out: % inhibition at 100nM
T22 construct: purchased DiscoverX

RPS6KA2 = molecular target: T23, RPS6KA2 (Homo sapiens, UniProt Q15349); assay: Proqinase Kinase profiling; type: biochemical; conditions: read-out: % inhibition at 100nM
T23 construct: purchased DiscoverX

CDC42BPA = molecular target: T24, CDC42BPA (Homo sapiens, UniProt Q5VT25); assay: Proqinase Kinase profiling; type: biochemical; conditions: read-out: % inhibition at 100nM
T24 construct: purchased DiscoverX

MAPK9 = molecular target: T25, MAPK9 (Homo sapiens, UniProt P45984); assay: Proqinase Kinase profiling; type: biochemical; conditions: read-out: % inhibition at 100nM
T25 construct: purchased DiscoverX

ALK_C1156Y = molecular target: T26, ALK_C1156Y (Homo sapiens, UniProt Q9UM73, C1156Y); assay: Proqinase Kinase profiling; type: biochemical; conditions: read-out: % inhibition at 100nM
T26 construct: purchased DiscoverX

SRC = molecular target: T27, SRC (Homo sapiens, UniProt P12931); assay: Proqinase Kinase profiling; type: biochemical; conditions: read-out: % inhibition at 100nM
T27 construct: purchased DiscoverX

PRKACA = molecular target: T28, PRKACA (Homo sapiens, UniProt P17612); assay: Proqinase Kinase profiling; type: biochemical; conditions: read-out: % inhibition at 100nM
T28 construct: purchased DiscoverX

BMPR1A = molecular target: T29, BMPR1A (Homo sapiens, UniProt P36894); assay: Proqinase Kinase profiling; type: biochemical; conditions: read-out: % inhibition at 100nM
T29 construct: purchased DiscoverX

KIT_V559D_T670I = molecular target: T30, KIT_V559D_T670I (Homo sapiens, UniProt P10721, T670I/V559D); assay: Proqinase Kinase profiling; type: biochemical; conditions: read-out: % inhibition at 100nM
T30 construct: purchased DiscoverX

LTK = molecular target: T31, LTK (Homo sapiens, UniProt P29376); assay: Proqinase Kinase profiling; type: biochemical; conditions: read-out: % inhibition at 100nM
T31 construct: purchased DiscoverX

MINK1 = molecular target: T32, MINK1 (Homo sapiens, UniProt Q8N4C8); assay: Proqinase Kinase profiling; type: biochemical; conditions: read-out: % inhibition at 100nM
T32 construct: purchased DiscoverX

EGFR_T790M = molecular target: T33, EGFR_T790M (Homo sapiens, UniProt P00533, T790M); assay: Proqinase Kinase profiling; type: biochemical; conditions: read-out: % inhibition at 100nM
T33 construct: purchased DiscoverX

KIT_V560G = molecular target: T34, KIT_V560G (Homo sapiens, UniProt P10721, V560G); assay: Proqinase Kinase profiling; type: biochemical; conditions: read-out: % inhibition at 100nM
T34 construct: purchased DiscoverX
T34 sequence (P10721 26-976 V560G): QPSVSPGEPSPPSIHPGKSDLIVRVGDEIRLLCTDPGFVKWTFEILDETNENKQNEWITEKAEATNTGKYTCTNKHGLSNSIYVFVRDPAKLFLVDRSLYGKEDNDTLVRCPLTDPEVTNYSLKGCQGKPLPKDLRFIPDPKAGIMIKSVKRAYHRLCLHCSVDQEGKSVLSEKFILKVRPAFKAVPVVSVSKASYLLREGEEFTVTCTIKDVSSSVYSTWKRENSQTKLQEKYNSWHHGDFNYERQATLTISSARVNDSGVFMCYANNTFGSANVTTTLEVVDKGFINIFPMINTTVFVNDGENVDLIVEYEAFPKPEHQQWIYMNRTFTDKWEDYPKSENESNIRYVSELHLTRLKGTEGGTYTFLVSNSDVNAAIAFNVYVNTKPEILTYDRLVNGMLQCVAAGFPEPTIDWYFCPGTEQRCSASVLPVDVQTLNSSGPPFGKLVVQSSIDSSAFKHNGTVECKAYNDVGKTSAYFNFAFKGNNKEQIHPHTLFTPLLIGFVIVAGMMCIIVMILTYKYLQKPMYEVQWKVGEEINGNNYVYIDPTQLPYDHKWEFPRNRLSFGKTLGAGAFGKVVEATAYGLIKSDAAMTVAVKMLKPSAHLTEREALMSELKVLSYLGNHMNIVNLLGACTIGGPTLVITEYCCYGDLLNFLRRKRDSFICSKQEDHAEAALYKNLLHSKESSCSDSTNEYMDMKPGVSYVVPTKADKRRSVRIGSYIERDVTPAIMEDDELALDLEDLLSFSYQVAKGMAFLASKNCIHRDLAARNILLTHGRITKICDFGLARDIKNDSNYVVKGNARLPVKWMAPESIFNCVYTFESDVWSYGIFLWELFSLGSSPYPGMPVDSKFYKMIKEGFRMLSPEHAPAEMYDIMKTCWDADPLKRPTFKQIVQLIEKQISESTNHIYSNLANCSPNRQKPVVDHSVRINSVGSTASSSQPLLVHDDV

T25 sequence (P45984 whole entry): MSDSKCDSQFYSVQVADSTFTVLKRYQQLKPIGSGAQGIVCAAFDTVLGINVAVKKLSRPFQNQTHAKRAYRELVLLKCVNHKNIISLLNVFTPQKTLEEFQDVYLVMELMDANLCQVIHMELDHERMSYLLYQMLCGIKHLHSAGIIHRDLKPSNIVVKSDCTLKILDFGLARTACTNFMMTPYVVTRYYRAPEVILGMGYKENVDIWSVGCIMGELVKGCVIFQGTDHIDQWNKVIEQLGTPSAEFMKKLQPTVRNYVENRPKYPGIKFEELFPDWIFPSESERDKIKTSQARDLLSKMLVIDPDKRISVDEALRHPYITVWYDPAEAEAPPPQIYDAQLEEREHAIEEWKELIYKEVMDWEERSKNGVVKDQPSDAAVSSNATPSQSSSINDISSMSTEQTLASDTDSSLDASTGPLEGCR
T32 sequence (Q8N4C8 whole entry): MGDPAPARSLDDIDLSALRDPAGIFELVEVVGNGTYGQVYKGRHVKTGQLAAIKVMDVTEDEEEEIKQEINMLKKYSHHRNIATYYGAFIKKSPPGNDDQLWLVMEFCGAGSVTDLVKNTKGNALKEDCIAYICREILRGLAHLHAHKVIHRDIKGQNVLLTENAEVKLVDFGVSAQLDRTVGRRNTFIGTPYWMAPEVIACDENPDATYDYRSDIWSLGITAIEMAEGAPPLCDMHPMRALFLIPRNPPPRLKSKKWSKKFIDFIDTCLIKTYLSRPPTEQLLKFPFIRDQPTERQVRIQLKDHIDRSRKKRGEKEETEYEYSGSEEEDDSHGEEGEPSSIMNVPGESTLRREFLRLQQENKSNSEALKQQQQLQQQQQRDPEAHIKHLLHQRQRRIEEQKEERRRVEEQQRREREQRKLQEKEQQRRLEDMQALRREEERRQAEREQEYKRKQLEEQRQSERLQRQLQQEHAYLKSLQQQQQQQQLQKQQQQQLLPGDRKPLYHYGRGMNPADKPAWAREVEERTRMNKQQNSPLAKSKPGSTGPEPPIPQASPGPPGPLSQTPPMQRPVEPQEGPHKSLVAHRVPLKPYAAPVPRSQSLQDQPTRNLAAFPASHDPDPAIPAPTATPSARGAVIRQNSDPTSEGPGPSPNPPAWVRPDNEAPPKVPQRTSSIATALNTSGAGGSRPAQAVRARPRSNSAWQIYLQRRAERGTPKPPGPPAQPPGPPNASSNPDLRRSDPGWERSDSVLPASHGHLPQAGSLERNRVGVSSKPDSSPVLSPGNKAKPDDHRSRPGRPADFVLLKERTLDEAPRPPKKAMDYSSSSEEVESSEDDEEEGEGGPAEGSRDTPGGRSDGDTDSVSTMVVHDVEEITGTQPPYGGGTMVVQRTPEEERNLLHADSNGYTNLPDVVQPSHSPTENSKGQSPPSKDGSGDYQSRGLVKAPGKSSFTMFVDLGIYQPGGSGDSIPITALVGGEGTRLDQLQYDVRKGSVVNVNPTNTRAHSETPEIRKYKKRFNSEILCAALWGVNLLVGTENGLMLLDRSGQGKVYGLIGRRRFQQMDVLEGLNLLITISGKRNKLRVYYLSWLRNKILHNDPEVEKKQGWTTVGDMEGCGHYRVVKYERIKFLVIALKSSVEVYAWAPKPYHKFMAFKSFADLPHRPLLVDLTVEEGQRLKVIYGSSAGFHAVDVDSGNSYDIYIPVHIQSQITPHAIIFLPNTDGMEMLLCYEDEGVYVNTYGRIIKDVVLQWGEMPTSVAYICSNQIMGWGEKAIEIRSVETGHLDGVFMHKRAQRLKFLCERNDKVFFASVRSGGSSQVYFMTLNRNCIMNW
T12 sequence (P51956 whole entry): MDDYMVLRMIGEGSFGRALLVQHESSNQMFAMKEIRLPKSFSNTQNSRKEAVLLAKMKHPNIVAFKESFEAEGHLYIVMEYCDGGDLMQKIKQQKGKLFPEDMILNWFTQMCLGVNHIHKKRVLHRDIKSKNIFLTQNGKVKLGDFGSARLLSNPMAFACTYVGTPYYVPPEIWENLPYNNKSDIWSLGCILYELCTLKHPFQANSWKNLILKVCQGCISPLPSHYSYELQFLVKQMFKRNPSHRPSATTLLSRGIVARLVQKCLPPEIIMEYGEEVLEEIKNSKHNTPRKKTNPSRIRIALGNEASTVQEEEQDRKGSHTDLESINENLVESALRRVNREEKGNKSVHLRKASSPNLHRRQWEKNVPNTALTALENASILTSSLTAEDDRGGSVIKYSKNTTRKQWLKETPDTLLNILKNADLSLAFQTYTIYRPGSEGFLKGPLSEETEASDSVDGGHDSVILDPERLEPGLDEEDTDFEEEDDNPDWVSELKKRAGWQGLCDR
T18 sequence (O15264 whole entry): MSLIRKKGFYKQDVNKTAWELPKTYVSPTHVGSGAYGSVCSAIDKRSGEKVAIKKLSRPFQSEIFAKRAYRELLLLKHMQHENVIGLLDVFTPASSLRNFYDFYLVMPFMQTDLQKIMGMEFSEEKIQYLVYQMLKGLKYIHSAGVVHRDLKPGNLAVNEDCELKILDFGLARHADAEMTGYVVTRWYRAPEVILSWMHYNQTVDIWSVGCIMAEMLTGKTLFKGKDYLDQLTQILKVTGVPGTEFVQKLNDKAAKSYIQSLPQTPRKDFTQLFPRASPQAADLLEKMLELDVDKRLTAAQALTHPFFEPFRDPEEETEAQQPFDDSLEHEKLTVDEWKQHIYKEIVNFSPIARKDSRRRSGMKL
T33 sequence (P00533 25-1210 T790M): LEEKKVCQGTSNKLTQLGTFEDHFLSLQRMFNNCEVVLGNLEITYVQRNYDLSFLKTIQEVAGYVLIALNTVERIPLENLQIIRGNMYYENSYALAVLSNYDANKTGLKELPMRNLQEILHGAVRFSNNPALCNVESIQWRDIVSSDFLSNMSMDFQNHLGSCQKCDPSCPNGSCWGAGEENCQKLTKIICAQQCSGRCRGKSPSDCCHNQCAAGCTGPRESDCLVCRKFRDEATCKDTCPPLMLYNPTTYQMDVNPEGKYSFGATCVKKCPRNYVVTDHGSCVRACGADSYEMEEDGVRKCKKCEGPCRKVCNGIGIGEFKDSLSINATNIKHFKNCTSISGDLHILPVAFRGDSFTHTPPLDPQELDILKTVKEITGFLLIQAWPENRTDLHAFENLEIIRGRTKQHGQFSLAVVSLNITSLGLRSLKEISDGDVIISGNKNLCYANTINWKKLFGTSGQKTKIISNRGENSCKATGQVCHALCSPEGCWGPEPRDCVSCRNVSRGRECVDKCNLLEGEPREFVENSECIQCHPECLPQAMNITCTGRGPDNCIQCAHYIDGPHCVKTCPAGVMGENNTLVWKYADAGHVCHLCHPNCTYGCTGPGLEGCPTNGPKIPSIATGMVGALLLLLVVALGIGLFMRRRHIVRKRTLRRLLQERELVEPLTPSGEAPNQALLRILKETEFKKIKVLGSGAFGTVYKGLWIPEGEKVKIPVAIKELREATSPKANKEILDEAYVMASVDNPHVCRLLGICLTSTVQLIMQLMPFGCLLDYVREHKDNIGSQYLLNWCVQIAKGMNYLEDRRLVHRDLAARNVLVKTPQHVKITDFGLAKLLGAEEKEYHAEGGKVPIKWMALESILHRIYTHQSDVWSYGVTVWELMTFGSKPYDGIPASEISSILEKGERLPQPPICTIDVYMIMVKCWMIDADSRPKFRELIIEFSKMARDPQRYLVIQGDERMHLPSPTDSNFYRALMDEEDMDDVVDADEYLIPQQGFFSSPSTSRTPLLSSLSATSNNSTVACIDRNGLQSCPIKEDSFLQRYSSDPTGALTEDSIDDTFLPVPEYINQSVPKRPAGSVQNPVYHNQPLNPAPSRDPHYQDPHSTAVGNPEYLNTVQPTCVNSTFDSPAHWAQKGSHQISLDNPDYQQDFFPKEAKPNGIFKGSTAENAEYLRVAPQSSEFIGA
T30 sequence (P10721 26-976 V559D/T670I): as the sequence (P10721 26-976 V560G) above, with V534D, G535V, T645I counted along it

| Compound | Kd (ALK1) [nM] | Kd (ALK2) [nM] | Kd (ALK3) [nM] | Kd (ALK4) [nM] | Kd (ALK5) [nM] | inhibition at 0.1 µM (RET) [%] | inhibition at 0.1 µM (PDGFRA_D842V) [%] | inhibition at 0.1 µM (GRK4) [%] | inhibition at 0.1 µM (PRKCA) [%] | inhibition at 0.1 µM (MAP2K2) [%] | inhibition at 0.1 µM (DDR2) [%] | inhibition at 0.1 µM (NEK3) [%] | inhibition at 0.1 µM (STK3) [%] | inhibition at 0.1 µM (MAP4K4) [%] | inhibition at 0.1 µM (RPS6KB2) [%] | inhibition at 0.1 µM (FLT3_D835Y) [%] | inhibition at 0.1 µM (CLK4) [%] | inhibition at 0.1 µM (MAPK13) [%] | inhibition at 0.1 µM (CDK6_cyclinD1) [%] | inhibition at 0.1 µM (SGK2) [%] | other results |
| --- | --- | --- | --- | --- | --- | --- | --- | --- | --- | --- | --- | --- | --- | --- | --- | --- | --- | --- | --- | --- | --- |
| Clc1cc2cc(c1)-c1cnn3ccc(nc13)NCCOCCO2 [OD36] | 90 | 37 | 3000 | 3000 | 3000 | 27 | 47 | 16 | 26 | -7 | 59 | 22 | 12 | 38 | 11 | 62 | 22 | 15 | -5 | 6 | inhibition at 0.1 µM (MARK3): 8%; inhibition at 0.1 µM (CDK16_cyclinY): 12%; inhibition at 0.1 µM (RPS6KA2): 7%; inhibition at 0.1 µM (CDC42BPA): 15%; inhibition at 0.1 µM (MAPK9): 12%; inhibition at 0.1 µM (ALK_C1156Y): 13%; inhibition at 0.1 µM (SRC): 15%; inhibition at 0.1 µM (PRKACA): -3%; inhibition at 0.1 µM (BMPR1A): 9%; inhibition at 0.1 µM (KIT_V559D_T670I): 7%; inhibition at 0.1 µM (LTK): 6%; inhibition at 0.1 µM (MINK1): 5%; inhibition at 0.1 µM (EGFR_T790M): -14%; inhibition at 0.1 µM (KIT_V560G): 19% |
| Cc1cc2cc(c1)-c1cnn3ccc(nc13)NCCNC(=O)CCN(C)C2 [OD52] | 13 | 9.6 | 1300 | 260 | 850 | 28 | 17 | 16 | 8 | 7 | 6 | 6 | 5 | 5 | 4 | 4 | 4 | 3 | 2 | -1 | inhibition at 0.1 µM (MARK3): -1%; inhibition at 0.1 µM (CDK16_cyclinY): -2%; inhibition at 0.1 µM (RPS6KA2): -2%; inhibition at 0.1 µM (CDC42BPA): -4%; inhibition at 0.1 µM (MAPK9): -5%; inhibition at 0.1 µM (ALK_C1156Y): -6%; inhibition at 0.1 µM (SRC): -6%; inhibition at 0.1 µM (PRKACA): -7%; inhibition at 0.1 µM (BMPR1A): -7%; inhibition at 0.1 µM (KIT_V559D_T670I): -8%; inhibition at 0.1 µM (LTK): -8%; inhibition at 0.1 µM (MINK1): -11%; inhibition at 0.1 µM (EGFR_T790M): -17%; inhibition at 0.1 µM (KIT_V560G): -21% |
